Tests used:
[1] = molecular target: T1, Adenosine A1 (Homo sapiens, UniProt P30542); experiment: Radioligand binding assay 2, Adenosine A1; set-up: expressed in transfected cells; host or cells: CHO cells; details: at 1 μmol/l; human recombinant CHO cells, [3H]CCPA; read-out: A1 AR % inhibition of agonist binding
T1 sequence (P30542 1-326): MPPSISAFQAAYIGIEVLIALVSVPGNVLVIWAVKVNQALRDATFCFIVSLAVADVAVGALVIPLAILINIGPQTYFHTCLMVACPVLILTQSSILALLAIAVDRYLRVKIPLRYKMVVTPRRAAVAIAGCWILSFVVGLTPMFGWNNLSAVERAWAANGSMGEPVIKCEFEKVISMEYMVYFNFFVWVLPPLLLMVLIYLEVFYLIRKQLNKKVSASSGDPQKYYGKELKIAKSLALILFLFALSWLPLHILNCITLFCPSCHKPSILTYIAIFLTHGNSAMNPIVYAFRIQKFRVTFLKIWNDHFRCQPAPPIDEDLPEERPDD
Description: (§1) The assays were performed under the conditions described below. The literature references are also provided for each assay:
The adenosine A1 radioligand binding assay used is further described in Rivkees S. A. et al., J. Biol. Chem., 1995, 270, 20485 and is incorporated herein by reference.
(§2) The specific ligand binding to the receptors is defined as the difference between the total binding and the non-specific binding determined in the presence of an excess of unlabelled ligand. The results are expressed as a percent of control specific binding and as percent inhibition of control specific binding obtained in the presence of the test compounds.

[2] = molecular target: Adenosine A2A (Homo sapiens, UniProt P29274); experiment: Radioligand binding assay 2, Adenosine A2A; set-up: expressed in transfected cells; host or cells: HEK-293 cells; details: at 1 μmol/l; human recombinant HEK-293 cells, [3H]CGS 21680; read-out: A2A AR % inhibition of agonist binding
Description: as §1
The adenosine A2A radioligand binding assay used is further described in Luthin D. R. et al., Mol. Pharmacol., 1995, 47 and is incorporated herein by reference.
as §2

[3] = molecular target: T2, Adenosine A2B (Homo sapiens, UniProt P29275); experiment: Radioligand binding assay 2, Adenosine A2B; details: at 1 μmol/l; human recombinant HEK-293 cells, [3H]MRS 1754; read-out: A2B AR % inhibition of agonist binding
T2 construct: expressed in transfected cells; host or cells: HEK-293 cells
T2 sequence (P29275 1-332): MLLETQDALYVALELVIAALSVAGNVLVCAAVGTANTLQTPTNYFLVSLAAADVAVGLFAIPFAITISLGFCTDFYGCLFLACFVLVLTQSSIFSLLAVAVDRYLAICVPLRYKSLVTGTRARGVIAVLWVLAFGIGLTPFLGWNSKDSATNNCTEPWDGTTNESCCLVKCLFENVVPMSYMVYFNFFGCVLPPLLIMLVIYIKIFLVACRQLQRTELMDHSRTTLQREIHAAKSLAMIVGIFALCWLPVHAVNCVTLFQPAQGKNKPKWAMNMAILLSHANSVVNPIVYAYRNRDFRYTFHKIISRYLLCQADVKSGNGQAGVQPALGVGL
Description: as §1
The adenosine A2B radioligand binding assay used is further described in Stehle J. H. et al., Mol. Endocrinol., 1992, 6, 384 and is incorporated herein by reference.
as §2

[4] = molecular target: T3, Adenosine A3 (Homo sapiens, UniProt P0DMS8); experiment: Radioligand binding assay 2, Adenosine A3; details: at 1 μmol/l; human recombinant HEK-293 cells, [125I]AB-MECA; read-out: A3 AR % inhibition of agonist binding
T3 construct: expressed in transfected cells; host or cells: HEK-293 cells
T3 sequence (P0DMS8 1-318): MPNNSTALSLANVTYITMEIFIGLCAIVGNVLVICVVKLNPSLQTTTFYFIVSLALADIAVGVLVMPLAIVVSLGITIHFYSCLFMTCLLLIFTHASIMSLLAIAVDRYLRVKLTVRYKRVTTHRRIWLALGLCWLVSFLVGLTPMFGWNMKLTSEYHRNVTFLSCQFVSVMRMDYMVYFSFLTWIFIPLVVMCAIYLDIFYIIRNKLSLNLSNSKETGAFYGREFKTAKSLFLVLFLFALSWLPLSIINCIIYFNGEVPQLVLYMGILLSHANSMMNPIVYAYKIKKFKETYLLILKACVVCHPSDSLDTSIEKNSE
Description: as §1
The adenosine A3 radioligand binding assay used is further described in Salvatore C. A. et al., Proc. Natl. Acad. Sci. USA, 1993, 90, 10365 and is incorporated herein by reference.
as §2

[5] = molecular target: T4, MAO-B (Homo sapiens, UniProt P27338); experiment: MAO-B inhibition; format: biochemical
T4 sequence (P27338 1-520): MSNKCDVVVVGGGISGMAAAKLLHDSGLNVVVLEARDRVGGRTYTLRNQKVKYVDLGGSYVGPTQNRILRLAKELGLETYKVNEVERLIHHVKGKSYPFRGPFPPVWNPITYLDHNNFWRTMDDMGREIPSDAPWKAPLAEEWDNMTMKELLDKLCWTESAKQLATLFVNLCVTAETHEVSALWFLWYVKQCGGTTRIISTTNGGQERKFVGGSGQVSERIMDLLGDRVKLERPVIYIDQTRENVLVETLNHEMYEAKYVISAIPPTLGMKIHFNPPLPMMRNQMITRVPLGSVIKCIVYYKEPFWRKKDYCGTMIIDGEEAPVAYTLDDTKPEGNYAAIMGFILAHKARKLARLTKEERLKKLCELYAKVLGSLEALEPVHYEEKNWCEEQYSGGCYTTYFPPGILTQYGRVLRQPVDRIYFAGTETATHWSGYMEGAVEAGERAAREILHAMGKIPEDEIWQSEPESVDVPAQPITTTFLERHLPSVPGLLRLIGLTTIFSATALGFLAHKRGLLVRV

Chain of Adenosine A2A (P29274 whole entry): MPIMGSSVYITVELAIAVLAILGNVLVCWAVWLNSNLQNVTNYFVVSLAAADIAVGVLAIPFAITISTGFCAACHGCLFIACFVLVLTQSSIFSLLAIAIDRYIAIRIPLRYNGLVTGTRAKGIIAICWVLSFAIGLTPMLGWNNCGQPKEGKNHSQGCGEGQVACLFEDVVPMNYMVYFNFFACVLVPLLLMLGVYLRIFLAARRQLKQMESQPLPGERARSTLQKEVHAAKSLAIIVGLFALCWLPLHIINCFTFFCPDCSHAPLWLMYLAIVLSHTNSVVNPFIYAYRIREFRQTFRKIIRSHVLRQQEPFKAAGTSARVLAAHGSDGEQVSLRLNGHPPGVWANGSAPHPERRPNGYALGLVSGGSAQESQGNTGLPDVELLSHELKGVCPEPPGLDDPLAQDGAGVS

inhibition at 1 µM [1] [%] | inhibition at 1 µM [2] [%] | inhibition at 1 µM [3] [%] | inhibition at 1 µM [4] [%] | Mao-B-inhibition values [5] | SMILES | melting point [°C]
5 | 81 | 19 | 24 |  | C#CCn1c(=O)c2c(nc(C#Cc3cccc(OC)c3)n2C)n(C)c1=O [drawing 607] | 
41 | 93 | 6 | 37 |  | C#CCn1c(=O)c2c(nc(C#Cc3cccc(OC)c3)n2C)n(CCCO)c1=O [drawing 611] | 
43 | 92 | 17 | 54 |  | C#CCn1c(=O)c2c(nc(C#Cc3cccc(C)c3)n2C)n(CCCO)c1=O [drawing 613] | 
 |  |  |  | submikromolar range | C#CCn1c(=O)c2c(nc(C#Cc3cccc(Cl)c3)n2C)n(C)c1=O [8-(3-chlorophenylethynyl)-3,7-dimethyl-1-prop-2-ynyl-3,7-dihydropurine-2,6-dione] | 
 |  |  |  |  | C#CCn1c(=O)c2c(nc(C#Cc3cccc(O)c3)n2C)n(C)c1=O [8-(3-Hydroxyphenylethynyl)-3,7-dimethyl-1-prop-2-ynyl-3,7-dihydropurine-2,6-dione] | 271
 |  |  |  |  | C#CCn1c(=O)c2c(nc(C#Cc3cccc(OC(C)=O)c3)n2C)n(C)c1=O [8-(3-Acetoxyphenylethynyl)-3,7-dimethyl-1-prop-2-ynyl-3,7-dihydropurine-2,6-dione] | 238
24 | 86 | 22 | 37 |  | C#CCn1c(=O)c2c(nc(C#Cc3cccc(OC)c3)n2CC#C)n(C)c1=O [drawing 610] | 
34 | 97 | 14 | 36 |  | C#CCn1c(=O)c2c(nc(C#Cc3ccc(OC)c(OC)c3)n2C)n(CCCO)c1=O [drawing 612] | 
 |  |  |  | submikromolar range | C#CCn1c(=O)c2c(nc(C#Cc3cccc(Br)c3)n2C)n(C)c1=O [8-(3-bromophenylethynyl)-3,7-dimethyl-1-prop-2-ynyl-3,7-dihydropurine-2,6-dione] | 
4 | 95 | 14 | 38 |  | C#CCn1c(=O)c2c(nc(C#Cc3ccc(OC)c(OC)c3)n2C)n(CC)c1=O [drawing 608] | 
10 | 85 | 19 | 16 |  | C#CCn1c(=O)c2c(nc(C#Cc3ccc(OC)c(OC)c3)n2C)n(C)c1=O [drawing 609] | 

Source: patent US20080221134A1, “8-ALKYNYLXANTHINES AND DERIVATIVES” (priority 2006, published 2008)
